Assay results taken from patent publication US11168059B2, “Amino sulfonyl compounds” (CV6 Therapeutics (NI) Limited, priority 2016, dated 2021).

These compounds were tested on colorectal (HCT 116 and SW620) cell line models (assay: MTS growth inhibition assay). Settings: 5-FU between 0 and 100 μmol/L; both colorectal cancer cell lines.
Format: cell-based
Method: The Cell Titer AQueous MTS assay (Promega) is carried out according to the manufacturers guidelines. […] The combination effect is determined by the combination index (CI) method utilizing Calcusyn software (Biosoft, Ferguson, Mo.). […] CI values <1, synergism; 1-1.2, additive and >1.2, antagonism.
Test compounds are evaluated for their antitumor activity in colorectal cancer cells using the MTS growth inhibition assay. HCT116 and SW620 cells are exposed to increasing concentrations of each agent for 72 hours and growth inhibition is directly compared to vehicle-treated controls. The NSCLC cell lines A549 and H1299 are exposed to increasing concentrations of each agent for 72 hours and growth inhibition is directly compared to vehicle-treated controls.
Simultaneous treatment with increasing concentrations of 5-FU and a test compound at fixed concentrations of 25 μmol/L is determined.

For O=c1[nH]cc(F)c(=O)[nH]1 [Example 5-FU, 5-fluorouracil], the growth inhibition was “dose-dependent increases in growth inhibition”.

Each compound was assayed on colorectal (HCT116), breast (MCF-7) and non-small cell lung (H1299, A549, H358 and H460) cell line models (assay: Colony forming assay). Settings: FUdR between 0.5 and 2.5 μmol/L; all cell lines evaluated.
Format: cell-based
Method: Colony forming assay showing the ability of colon (SW620, HCT116), non-small cell lung (A549, H460, H1299 and H358) and breast (MCF7) cancer cells to survive and proliferate following transient 24 hour exposure to test compounds, FUdR and combinations are determined. Specifically, cells are seeded at densities between 50 and 100 cells/well in 24-well plates. Twenty-four hours later, cells are treated with increasing concentrations of a rtest compound, a fixed dose of FUdR and combinations of these. After 24 hours, drug is removed, cells are rinsed and allowed to outgrow for 10-14 days. At the conclusion of the outgrowth, cells are fixed in 60% ice cold methanol and stained with 0.1% crystal violet, scanned and counted. Data is presented as percentage of untreated controls (mean±SD). Fraction affected and combination indexes are calculated according to the method of Chou and Talalay where <1 is indicative of a synergistic drug interaction.
Colony forming assays are performed to evaluate the effectiveness of test compounds alone and in combination with the fluoropyrimidine thymidylate synthase (TS) inhibitor fluorodeoxyuridine (FUdR) at reducing cancer cell viability in colorectal (HCT116), breast (MCF-7) and non-small cell lung (H1299, A549, H358 and H460) cell line models. […]

For O=c1[nH]c(=O)n([C@H]2C[C@H](O)[C@@H](CO)O2)cc1F [FUdR, fluorodeoxyuridine], the colonies formed was “dose-dependent decreases in colonies formed”.

The compounds below were run against T1, recombinant human deoxyuridine nucleotidohydrolase (dUTPase) (Homo sapiens, UniProt P33316) (assay: dUTPase inhibition, fluorescence-based DNA polymerase assay). Settings: not given.
T1 construct: made in house
T1 sequence (P33316 1-164 isoform P33316-2): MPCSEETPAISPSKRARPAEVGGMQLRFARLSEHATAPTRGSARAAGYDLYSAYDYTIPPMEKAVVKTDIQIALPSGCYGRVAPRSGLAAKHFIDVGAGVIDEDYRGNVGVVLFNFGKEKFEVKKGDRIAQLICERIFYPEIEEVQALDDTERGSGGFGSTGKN
Format: biochemical
From the text: Recombinant human deoxyuridine nucleotidohydrolase (dUTPase) is expressed and purified as described in Ladner R D, Carr S A, Huddleston M J, McNulty D E, Caradonna S J. J Biol Chem. 1996 Mar. 29; 271(13):7752-7. All drugs stocks are aliquoted and diluted as appropriate prior to use. The oligonucelotide primer, templates and fluorophore- and quencher-labeled detection probes are synthesized by Integrated DNA Technologies (Coralville, Iowa), subjected to polyacrylamide gel electrophoresis purification and reconstituted in Omnipur sterile nuclease-free water (EMD Chemicals USA, Gibbstown N.J.) at a stock concentration of 100 μmol/L. The two non-emissive (dark) quenching molecules incorporated into the detection probes include the Iowa black fluorescein quencher (IBFQ; absorption max 531 nm) and ZEN (non-abbreviation; absorption max 532 nm). The fluorescent label utilized is 6-FAM (5′-carboxyfluorescein; excitation max.=494 nm, emission max.=520 nm). Probes are further diluted to a working stock of 10 μmol/L and aliquoted to avoid repeated freeze/thaw cycles. AmpliTaq Gold DNA Polymerase, GeneAmp 10×PCR Buffer 2, MgCl2 and MicroAmp Optical 96-well Reaction Plates are purchased from Applied Biosystems (Carlsbad, Calif.). dNTPs are purchased individually at stock concentrations of 100 mmol/L from New England Biolabs at HPLC-certified >99% purity (Ipswich, Mass.).
Reaction mixtures contained primer, probe and template at an equimolar final concentration of 0.4 μmol/L. Magnesium chloride (MgCl2) is included at a final concentration of 2 mmol/L. Non-limiting dNTPs are included in the reaction mix in excess at a final concentration of 100 μmol/L (dUTP/dTTP is excluded). AmpliTaq Gold DNA polymerase is added at 0.875 U/reaction, 2.5 μl of 10×PCR buffer 2 added and nuclease-free ddH2O added to a final reaction volume of 25 μl. For dUTP inhibition analysis, the volume of ddH2O is further modified to accommodate an additional 1 μl of dUTPase (10 ng/μl) and 1 μl of inhibitor or DMSO control. Thermal profiling and fluorescence detection is performed using a customized thermal program on board a Roche Lightcycler LC480 Instrument II. For analysis of dNTPs, the thermal profile consisted of an 8 min 37° C. step followed by a 10 min 95° C. step to ‘hot-start’ the Taq polymerase and a primer extension time of up to 30 min at 60° C. Raw fluorescence spectra for 6-FAM is measured at specified time intervals to follow assay progression on board a Roche LightCycler 480 Software Version 1.5 and exported and analyzed in Microsoft Excel (Microsoft, Redmond Wash.) and Prism (GraphPad Software, La Jolla Calif.). Fluorescence values for blank reactions (limiting dNTP omitted) are subtracted to give normalized fluorescence units (NFU) to account for background fluorescence.
Test compounds are screened in a fluorescence-based assay. The assay employs a DNA polymerase-based approach utilizing an oligonucleotide template with 3 distinct regions: a 3′ primer binding region, a mid-template dUTP/thymidine triphosphate (TTP) detection region and a 5′ 6-[…] (FAM)-labeled probe binding region that incorporates a black hole quenching moiety. During the reaction, the probe and primer hybridize to the oligonucleotide template to form the template:primer:probe complex. When Taq polymerase binds to the primer in the TPP complex and dUTP is present, successful extension of the nascent strand occurs and the inherent 5′ to 3′ exonuclease activity of Taq polymerase cleaves and displaces the 6-FAM-labeled probe in a 5′ to 3′ direction, releasing the 6-FAM fluorophore from its proximity to the […]. This displacement effectively disrupts the Forster resonance energy transfer (FRET) and the resulting fluorescence detected upon excitation is directly proportional to the amount of the dUTP available in the assay for incorporation. […]

Point of comparison: O=C1CN(Cc2ccc(CNS(=O)(=O)c3cccc(OC4CCCC4)c3)cc2)C(=O)N1 [Example 40, 3-(cyclopentyloxy)-N-(4-((2,4-dioxoimidazolidin-1-yl)methyl)benzyl)benzenesulfonamide], IC50 1400 nM. Against it:
- CC(C)(NS(=O)(=O)c1cccc(OC2CCCC2)c1)c1ccc(CN2CC(=O)NC2=O)cc1 [Example 41, 3-(cyclopentyloxy)-N-(2-(4-((2,4-dioxoimidazolidin-1-yl)methyl)phenyl)propan-2-yl)benzenesulfonamide] — 4.7-fold lower, 300 nM

Same assay, conditions: mean over three concentrations, typically 100, 50 and 25 μmol/L, relative to in-run positive control

Point of comparison: CC(C)COc1cc(S(=O)(=O)NCCCCCCN2CCC(=O)NC2=O)ccc1F [Compound 50b, N-(6-(2,4-dioxotetrahydropyrimidin-1(2H)-yl)hexyl)-4-fluoro-3-isobutoxybenzenesulfonamide], “% relative inhibition vs. positive control” value 141%. Against it:
- O=C1CN(C/C=C/CCCNS(=O)(=O)c2cccc(OCC3CC3)c2)C(=O)N1 [Compound 44a, (E)-3-(cyclopropylmethoxy)-N-(6-(2,4-dioxoimidazolidin-1-yl)hex-4-en-1-yl)benzenesulfonamide] — higher, 159%
- O=C1CN(CCCCCCNS(=O)(=O)c2ccc(F)c(OCC3CC3)c2)C(=O)N1 [Compound 44b, 3-(cyclopropylmethoxy)-N-(6-(2,4-dioxoimidazolidin-1-yl)hexyl)-4-fluorobenzenesulfonamide] — higher, 168%
- CC(C)COc1cc(S(=O)(=O)NCCC/C=C/CN2CC(=O)NC2=O)ccc1F [Compound 45a, (E)-N-(6-(2,4-dioxoimidazolidin-1-yl)hex-4-en-1-yl)-4-fluoro-3-isobutoxybenzenesulfonamide] — higher, 178%
- CC(C)COc1cc(S(=O)(=O)NCCCCCCN2CC(=O)NC2=O)ccc1F [Compound 45b, N-(6-(2,4-dioxoimidazolidin-1-yl)hexyl)-4-fluoro-3-isobutoxybenzenesulfonamide] — higher, 151%
- O=C1CCN(C/C=C/CCCNS(=O)(=O)c2ccc(F)c(OCC3CC3)c2)C(=O)N1 [Compound 49a, (E)-3-(cyclopropylmethoxy)-N-(6-(2,4-dioxotetrahydropyrimidin-1(2H)-yl)hex-4-en-1-yl)-4-fluorobenzenesulfonamide] — higher, 151%
- O=C1CCN(C/C=C/CCCNS(=O)(=O)c2ccc(F)c(OCC3CC3)c2)C(=O)N1 [Compound 49b, (E)-3-(cyclopropylmethoxy)-N-(6-(2,4-dioxotetrahydropyrimidin-1(2H)-yl)hex-4-en-1-yl)-4-fluorobenzenesulfonamide] — higher, 144%
- CC(C)COc1cc(S(=O)(=O)NCCC/C=C/CN2CCC(=O)NC2=O)ccc1F [Compound 50a, (E)-N-(6-(2,4-dioxotetrahydropyrimidin-1(2H)-yl)hex-4-en-1-yl)-4-fluoro-3-isobutoxybenzenesulfonamide] — higher, 156%
- O=C1CN(Cc2ccc(CNS(=O)(=O)c3cccc(OC4CCCC4)c3)cc2)C(=O)N1 [Example 40, 3-(cyclopentyloxy)-N-(4-((2,4-dioxoimidazolidin-1-yl)methyl)benzyl)benzenesulfonamide] — lower, 53%
- CC(C)(NS(=O)(=O)c1cccc(OC2CCCC2)c1)c1ccc(CN2CC(=O)NC2=O)cc1 [Example 41, 3-(cyclopentyloxy)-N-(2-(4-((2,4-dioxoimidazolidin-1-yl)methyl)phenyl)propan-2-yl)benzenesulfonamide] — higher, 249%
- O=C1CN(CCOCCCNS(=O)(=O)c2cccc(OCC3CC3)c2)C(=O)N1 [Example 42, 3-(cyclopropylmethoxy)-N-(3-(2-(2,4-dioxoimidazolidin-1-yl)ethoxy)propyl)benzenesulfonamide] — lower, 136%
- O=C1CCN(CCOCCCNS(=O)(=O)c2cccc(OCC3CC3)c2)C(=O)N1 [Example 47, 3-(cyclopropylmethoxy)-N-(3-(2-(2,4-dioxotetrahydropyrimidin-1(2H)-yl)ethoxy)propyl) benzenesulfonamide] — lower, 8%
- O=C1CCN(CCCOCCNS(=O)(=O)c2cccc(OCC3CC3)c2)C(=O)N1 [Example 48, 3-(cyclopropylmethoxy)-N-(2-(3-(2,4-dioxotetrahydropyrimidin-1(2H)-yl)propoxy)ethyl)benzenesulfonamide] — lower, 82%
